Molecules are shown by their SMILES. Counter-ions that a name gives are not always drawn.

One assay has as its system IL-2 production. Description: Inhibition of IL-2 production in PHA-activated Jurkat cells (ELISA). It counts as cell-based, human. The settings on record: Homo sapiens, Jurkat, 20 h, Jurkat cells, PHA 2.5 μg/mL, 20 hours, IL-2 ELISA; read-out: IC50 (inhibition of IL-2 production). The method, then: Jurkat cells were placed in a 96 well plate (0.5 million cells per well in 1% FBS medium) then a test compound of this invention was added at different concentrations. After 10 minutes, the cells were activated with PHA (final concentration 2.5 μg/mL) and incubated for 20 hours at 37° C. under CO2. The final volume was 200 μL. Following incubation, the cells were centrifuged and the supernatants collected and stored at −70° C. prior to assaying for IL-2 production. A commercial ELISA kit (IL-2 Eli-pair, Diaclone Research, Besancon, France) was used to detect production of IL-2, from which dose response curves were obtained. The IC50 value was calculated as the concentration at which 50% of maximum IL-2 production after stimulation was inhibited versus a non-stimulation control.
(In an ELISA, binding on a coated surface is turned into a signal by an enzyme label.)
For the compound `Cc1ccc(-c2nnc(N(C)C)s2)cc1-c1ccc(NC(=O)c2c(F)cccc2F)cc1` [Compound 64, 2,6-Difluoro-N-{2′-methyl-5′-[5-(N,N-dimethylamino)-[1,3,4]thiadiazol-2-yl]-biphenyl-4-yl}-benzamide], the IC50 (in general, the midpoint of a concentration-inhibition curve) is 53 nM.

As for `Cc1ccc(-c2ncnn2C)cc1-c1ccc(NC(=O)c2ccncc2F)cc1` [Compound 67, 3-Fluoro-N-[2′-methyl-5′-(2-methyl-2H-[1,2,4]triazol-3-yl)-biphenyl-4-yl]-isonicotinamide], the IC50 is 27 nM.

Regarding `CSc1nnc(-c2ccc(C)c(-c3ccc(NC(=O)c4ccncc4C)cc3)c2)n1C` [Compound 74, 3-Methyl-N-[2′-methyl-5′-(4-methyl-5-methylsulfanyl-4H-[1,2,4]triazol-3-yl)-biphenyl-4-yl]-isonicotinamide], the IC50 was > 1000 nM.

For the compound `Cc1ccc(-c2nnc(N(C)C)s2)cc1-c1ccc(N(C)C(=O)c2c(F)cccc2F)cc1` [Compound 63, 2,6-Difluoro-N-{2′-methyl-5′-[5-(N,N-dimethylamino)-[1,3,4]thiadiazol-2-yl]-biphenyl-4-yl}-N-methyl-benzamide], the IC50 is > 1000 nM.

Regarding `COc1ncc(Cl)cc1-c1ccc(NC(=O)c2ccncc2F)cc1` [Compound 19, 3-Fluoro-N-[4-(5-chloro-2-methoxy-pyridin-3-yl)-phenyl]-isonicotinamide], the IC50 stood at 19 nM.

Take `Cc1csc(-c2ccc(C)c(-c3ccc(NC(=O)c4ccncc4C)cc3)c2)n1` [Compound 40, 3-Methyl-N-[5′-(4-methyl-thiazol-2-yl)-2′-methyl-biphenyl-4-yl]-isonicotinamide]: the IC50 worked out at 11 nM.

For `Cc1ccc(-c2ncco2)cc1-c1ccc(NC(=O)c2ccncc2F)cc1` [Compound 10, 3-Fluoro-N-(2′-methyl-5′-oxazol-2-yl-biphenyl-4-yl)-isonicotinamide], the IC50 came out at 3 nM.

As to `Cc1ccc(-c2nncs2)cc1-c1ccc(NC(=O)c2ccncc2F)cc1` [Compound 61, 3-Fluoro-N-[5′-([1,3,4]thiadiazol-2-yl)-2′-methyl-biphenyl-4-yl]-isonicotinamide], the IC50 was 6 nM.

For `O=C(Nc1ccc(-c2cc(-c3ncco3)ccc2Cl)cc1)c1c(F)cncc1F` [Compound 45, 3,5-Difluoro-N-[5′-(oxazol-2-yl)-2′-chloro-biphenyl-4-yl]-isonicotinamide], the IC50 worked out at 50 nM.

`O=C(Nc1ccc(-c2cc(-c3nccs3)ccc2Cl)cc1)c1c(F)cccc1F` [Compound 56, 2,6-Difluoro-N-[2′-chloro-5′-(thiazol-2-yl)-biphenyl-4-yl]-benzamide]: the IC50 is 2 nM.

As for `COc1ccc(-c2cnco2)cc1-c1ccc(NC(=O)c2snnc2C)cc1` [Compound 25, 4-Methyl-[1,2,3]thiadiazole-5-carboxylic acid [2′-methoxy-5′-(oxazol-5-yl)-biphenyl-4-yl]-amide], the IC50 was determined as 3 nM.

For `Cc1ccc(-c2ccncc2)cc1-c1ccc(NC(=O)c2c(F)cccc2F)cc1` [Compound 30, 2,6-Difluoro-N-[2′-methyl-5′-(pyridine-4-yl)-biphenyl-4-yl]-benzamide], the IC50 came out at 3 nM.

As to `CSc1nnc(-c2ccc(C)c(-c3ccc(NC(=O)c4c(F)cccc4F)cc3)c2)n1C` [Compound 72, 2,6-Difluoro-N-[2′-methyl-5′-(4-methyl-5-methylsulfanyl-4H-[1,2,4]triazol-3-yl)-biphenyl-4-yl]-benzamide], the IC50 is > 1000 nM.

Turning to `COc1ccc(-c2cccs2)cc1-c1ccc(NC(=O)c2ccncc2C)cc1` [Compound 52, 3-Methyl-N-[5′-(thien-2-yl)-2′-methoxy-biphenyl-4-yl]-isonicotinamide], the IC50 stood at 35 nM.

In the case of `COc1ccc(-c2cnco2)cc1-c1ccc(NC(=O)c2c(F)cccc2F)cc1` [Compound 27], the IC50 came to 4 nM.

`Cc1cnccc1C(=O)Nc1ccc(-c2cc(-c3nnn[nH]3)ccc2C)cc1` [Compound 44, 3-Methyl-N-[2′-methyl-5′-(1H-tetrazol-5-yl)-biphenyl-4-yl]-isonicotinamide]: the IC50 was > 1000 nM.

As to `Cc1ccc(-c2cocn2)cc1-c1ccc(NC(=O)c2c(F)cccc2F)cc1` [Compound 77, 2,6-Difluoro-N-[2′-methyl-5′-(oxazol-4-yl)-biphenyl-4-yl]-benzamide], the IC50 stood at 10 nM.

Take `O=C(Nc1ccc(-c2cc(-c3nccs3)ccc2Cl)cc1)c1ccncc1F` [Compound 58, 3-Fluoro-N-[5′-(thiazol-2-yl)-2′-chloro-biphenyl-4-yl]-isonicotinamide]: the IC50 was 2 nM.

Regarding `Cc1ccc(-c2ccccn2)cc1-c1ccc(NC(=O)c2snnc2C)cc1` [Compound 24, 4-Methyl-[1,2,3]thiadazole-5-carboxylic acid [2′-methyl-5′-(pyridin-2-yl)-biphenyl-4-yl]-amide], the IC50 was 15 nM.

As for `Cc1ccc(-c2nnco2)cc1-c1ccc(NC(=O)c2c(F)cncc2F)cc1` [Compound 68, 3,5-Difluoro-N-[2′-methyl-5′-([1,3,4]oxadiazol-2-yl)-biphenyl-4-yl]-isonicotinamide], the IC50 came out at 3 nM.

In the case of `Cc1cc(-c2ccc(C)c(-c3ccc(NC(=O)c4ccncc4C)cc3)c2)on1` [Compound 36, 3-Methyl-N-[5′-(3-methyl-isoxazol-5-yl)-2′-methyl-biphenyl-4-yl]-isonicotinamide], the IC50 came out at 4 nM.

Consider `Cc1cnccc1C(=O)Nc1ccc(-c2cc(-c3nccs3)ccc2Cl)cc1` [Compound 55, 3-Methyl-N-[5′-(thiazol-2-yl)-2′-chloro-biphenyl-4-yl]-isonicotinamide], for which the IC50 was 6 nM.

`Cc1ccc(-c2nc(C(F)(F)F)cs2)cc1-c1ccc(NC(=O)c2c(F)cccc2F)cc1` [Compound 39]: the IC50 was 13 nM.

As to `Cc1cnccc1C(=O)Nc1ccc(-c2cc(-c3ncco3)ccc2Cl)cc1` [Compound 17, 3-Methyl-N-(2′-chloro-5′-oxazol-2-yl-biphenyl-4-yl)-isonicotin-amide, hydrochloride], the IC50 was 7 nM.

With `Cc1ccc(-c2noc(=O)[nH]2)cc1-c1ccc(NC(=O)c2c(F)cccc2F)cc1` [Compound 42, 2,6-Difluoro-N-[2′-methyl-5′-(5-oxo-4,5-dihydro-[1,2,4]-oxadiazol-3-yl)-biphenyl-4-yl]-benzamide], the IC50 is > 1000 nM.

As for `Cc1ccc(-c2ccccn2)cc1-c1ccc(NC(=O)c2c(F)cccc2F)cc1` [Compound 23, 2,6-Difluoro-N-[2′-methyl-5′-(pyridine-2-yl)-biphenyl-4-yl]-benzamide], the IC50 came out at 5 nM.

As for `Cc1cnccc1C(=O)Nc1ccc(-c2cc(-c3nncs3)ccc2C)cc1` [Compound 60, 3-Methyl-N-[5′-([1,3,4]thiadiazol-2-yl)-2′-methyl-biphenyl-4-yl]-isonicotinamide], the IC50 came out at 13 nM.

Consider `Cc1ccc(-c2cccnc2)cc1-c1ccc(NC(=O)c2c(F)cccc2F)cc1` [Compound 22, 2,6-Difluoro-N-[2′-methyl-5′-(pyridine-3-yl)-biphenyl-4-yl]-benzamide], for which the IC50 amounted to 1 nM.

Turning to `Cc1ccc(-c2ccc[nH]2)cc1-c1ccc(NC(=O)c2c(F)cccc2F)cc1` [Compound 41, 2,6-Difluoro-N-[2′-methyl-5′-(1H-pyrrol-2-yl)-biphenyl-4-yl]-benzamide], the IC50 was found to be 18 nM.

As for `CSc1nnc(-c2ccc(C)c(-c3ccc(NC(=O)c4ccncc4F)cc3)c2)n1C` [Compound 73, 3-Fluoro-N-[2′-methyl-5′-(4-methyl-5-methylsulfanyl-4H-[1,2,4]triazol-3-yl)-biphenyl-4-yl]-isonicotinamide], the half-inhibitory concentration (IC50) is > 1000 nM.

In the case of `O=C(Nc1ccc(-c2cc(-c3nccs3)ccc2Cl)cc1)c1c(F)cncc1F` [Compound 57, 3,5-Difluoro-N-[5′-(thiazol-2-yl)-2′-chloro-biphenyl-4-yl]-isonicotinamide], the IC50 amounted to 3 nM.

For the compound `Cc1ccc(-c2nncs2)cc1-c1ccc(NC(=O)c2c(F)cncc2F)cc1` [Compound 53, 3,5-Difluoro-N-[5′-([1,3,4]thiadiazol-2-yl)-2′-methyl-biphenyl-4-yl]-isonicotinamide], the IC50 worked out at 6 nM.

Consider `Cc1ccc(-c2ncco2)cc1-c1ccc(NC(=O)c2c(F)cncc2F)cc1` [Compound 11, 3,5-Difluoro-N-(2′-methyl-5′-oxazol-2-yl-biphenyl-4-yl)-isonicotinamide], for which the IC50 was determined as 3 nM.

As to `Cc1ccc(N2CCOCC2)cc1-c1ccc(NC(=O)c2c(F)cccc2F)cc1` [Compound 43, 2,6-Difluoro-N-[2′-methyl-5′-(morpholino-4-yl)-biphenyl-4-yl]-benzamide], the IC50 worked out at 26 nM.

The same assay, now with this note: Homo sapiens, Jurkat, 20 h, read-out: IC50 (inhibition of IL-2 production).
Consider `Cc1ccc(-c2nnn[nH]2)cc1-c1ccc(NC(=O)c2c(F)cccc2F)cc1` [Compound 65, 2,6-Difluoro-N-[2′-methyl-5′-(1H-tetrazol-5-yl)-biphenyl-4-yl]-benzamide, sodium salt], for which the IC50 was > 1000 nM.

Still in this assay, the particulars now being: Homo sapiens; Jurkat cells, PHA 2.5 μg/mL, 20 hours, IL-2 ELISA; read-out: IC50 (inhibition of IL-2 production).
As for `Cc1cnccc1C(=O)Nc1ccc(-c2cc(-c3ncco3)ccc2C)cc1` [Compound 7, 3-Methyl-N-(2′-methyl-5′-oxazol-2-yl-biphenyl-4-yl)-isonicotinamide, hydrochloride], the half-maximal inhibitory concentration (IC50) was found to be 8 nM.

The same assay, now with this note: Jurkat cells, PHA 2.5 μg/mL, 20 hours, IL-2 ELISA; read-out: IC50 (inhibition of IL-2 production).
Turning to `Cc1cnccc1C(=O)Nc1ccc(-c2cc(-c3nccs3)ccc2C)cc1` [Compound 14, 3-Methyl-N-(2′-methyl-5′-thiazol-2-yl-biphenyl-4-yl)-isonicotin-amide], the IC50 came to 10 nM.

For the origin of these results see US8592486B2, “Compounds for inflammation and immune-related uses” (Synta Pharmaceuticals Corp., priority 2005, dated 2013).
